The test system of series [1] is CB1R. The experiment in a line: Literature affinity of drug-like ligands, CB1R (Figure 2). The class given is binding. To be noted: from literature Ki values.
The target in series [2] is CB1R. To be noted: cited from earlier work.
The next series deals with CB2R. The following applies: cited from earlier work.
Series [3] deals with CB1R. Also noted: method as in PMID 8070571, PMID 27240274, PMID 24175572. To be noted: cited from earlier work.
Another series deals with T1, human CB2R (Homo sapiens, UniProt P34972).
T1 construct: host or cells: CHO-K1 (CHOK1hCB2_bgal)
T1 sequence (P34972 whole entry): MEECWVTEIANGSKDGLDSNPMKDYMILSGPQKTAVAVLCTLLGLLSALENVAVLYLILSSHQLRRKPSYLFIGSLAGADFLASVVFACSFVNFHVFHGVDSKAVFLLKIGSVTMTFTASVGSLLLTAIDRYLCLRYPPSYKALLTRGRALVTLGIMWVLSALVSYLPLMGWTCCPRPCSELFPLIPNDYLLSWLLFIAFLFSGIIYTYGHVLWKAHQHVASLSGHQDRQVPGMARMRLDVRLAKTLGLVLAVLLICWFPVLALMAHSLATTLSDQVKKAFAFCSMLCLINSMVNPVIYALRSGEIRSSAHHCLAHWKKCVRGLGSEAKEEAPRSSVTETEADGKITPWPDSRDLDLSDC
The experiment in a line: [3H]CP55,940 displacement assay on CHO membranes, CB2R. The class given is binding.

Series [4] addresses T2, human CB1R on live SNAP-CB1R-HEK293TR cells (Homo sapiens, UniProt P21554).
T2 construct: expressed in transfected cells; host or cells: HEK293TR (tetracycline-inducible)
The format is cell-based. The following applies: 250 nM probe. Here is the method: (§1) Human CB1R HEK293TR cells (same transfected cell line as for TR-FRET binding assay was used, see above) were maintained in a humidified environment at 37 °C and 5% CO2 in DMEM with 10% FBS containing blasticidin (5 μg/mL; Invitrogen) and (Zeocin; 20 μg/mL; Invitrogen).
(§2) […] The cell nuclei were stained using 0.9 μM Hoechst 33342 for 1 h incubation. After replacement of medium to serum-free conditions without Phenol red (20 μL), fluorescent probes were added (10 μL) and tested at 250 nM concentration. In case of blocking experiments, nuclei-stained cells were incubated with inhibitors (5 μM) for 30 min under serum-free conditions before probe administration. Confocal live cell imaging was performed using the Opera Phenix High Content Screening System (Revvity) at 22 °C. The probe fluorescence was monitored by kinetic measurements of 10 min with a break for probe administration. The fluorescence of one image per sample was captured using a water immersion objective (63×, NA 1.15, field of view 0.21 × 0.21 mm) at each time point. Probe detection was realized using the appropriate laser for excitation and filter for fluorescence emission. Image acquisition parameters, including laser power, offset, and gain settings, were kept constant.

The subject of series [5] is human CB1R on live SNAP-CB1R-HEK293TR cells. The class given is cell-based. Here is the method: as §1, §2
The next series concerns the target T3, CB2R-HEK293TR (Homo sapiens, UniProt P34972).
T3 construct: expressed in transfected cells; host or cells: HEK293TR (tetracycline-inducible)
The experiment in a line: Live cell confocal imaging, CB2R-HEK293TR cells. The class given is cell-based. To be noted: 250 nM probe, induced CB2R expression. Here is the method:
Cells were plated onto a 384-well microplate (PhenoPlate, Revvity), at a density of 3500 cells/well (40 μL) with 1 μg/mL tetracycline for receptor-inducible expression and incubated for 48 h. The cell nuclei were stained using 0.9 μM Hoechst 33342 for 1 h incubation. After replacement of medium to serum-free conditions without Phenol red (20 μL), fluorescent probes were added (10 μL) and tested at 250 nM concentration. In case of blocking experiments, nuclei-stained cells were incubated with inhibitors (5 μM) for 30 min under serum-free conditions before probe administration. Confocal live cell imaging was performed using the Opera Phenix High Content Screening System (Revvity) at 22 °C. The probe fluorescence was monitored by kinetic measurements of 10 min with a break for probe administration. The fluorescence of one image per sample was captured using a water immersion objective (63×, NA 1.15, field of view 0.21 × 0.21 mm) at each time point. Probe detection was realized using the appropriate laser for excitation and filter for fluorescence emission. Image acquisition parameters, including laser power, offset, and gain settings, were kept constant.

Series [6] can be described thus: Photophysical characterization in PBS. The format is physicochemical. The following applies: PBS pH 7.4.
Series [7] has as its target T4, hCB1R (Homo sapiens, UniProt P21554). The experiment in a line: [3H]CP55,940 displacement assay on CHO membranes, CB1R. The class given is binding. Also noted: host or cells: CHO-K1 (CHOK1hCB1_bgal).
Target sequence in this assay (P21554 whole entry): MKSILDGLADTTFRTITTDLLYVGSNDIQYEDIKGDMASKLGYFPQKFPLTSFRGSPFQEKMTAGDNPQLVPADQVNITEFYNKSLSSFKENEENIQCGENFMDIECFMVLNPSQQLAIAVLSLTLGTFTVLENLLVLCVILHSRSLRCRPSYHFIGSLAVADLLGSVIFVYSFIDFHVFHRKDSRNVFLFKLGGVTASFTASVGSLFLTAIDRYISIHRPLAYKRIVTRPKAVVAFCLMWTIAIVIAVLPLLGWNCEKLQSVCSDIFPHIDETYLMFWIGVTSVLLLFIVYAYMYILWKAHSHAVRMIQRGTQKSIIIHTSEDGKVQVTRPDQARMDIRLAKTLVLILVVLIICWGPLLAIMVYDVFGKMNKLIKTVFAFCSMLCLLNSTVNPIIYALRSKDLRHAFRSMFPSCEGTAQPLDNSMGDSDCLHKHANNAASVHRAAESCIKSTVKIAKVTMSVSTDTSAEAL
Series [8] concerns the target T4, hCB1R. The experiment in a line: HTRF cAMP assay, agonist / inverse agonist mode. The class given is cell-based. Also noted: expressed in transfected cells; host or cells: CHO. A general note: TR-FRET usually uses a lanthanide donor and a delayed reading to cut background.
Target sequence in this assay (P21554 whole entry): as above
In series [9] the target is T4, hCB1R. The experiment in a line: HTRF cAMP assay, antagonist mode (forskolin with CP55,940).
Target sequence in this assay (P21554 whole entry): as above
Experimental: The homogeneous time-resolved fluorescence (HTRF) cAMP assay was conducted following the manufacturer’s protocol for the cAMP-Gs Dynamic kit. […] After 15 min, reactions were stopped by the 1× cAMP-d2 conjugate in lysis buffer (5 μL/well), followed by 1× anti-cAMP cryptate conjugate in lysis buffer (5 μL/well). Following a 1 h incubation at room temperature, the plates were read in a Revvity Envision reader for time-resolved fluorescence resonance energy transfer detection at 620 and 665 nm. The HTRF ratio versus compound concentrations was plotted using Prism 8.1 (GraphPad). HTRF ratio = (signal 665 nm/signal 620 nm) × 10^4.
In series [10] the target is T4, hCB1R. The experiment in a line: TR-FRET fluorescent ligand binding (saturation and kinetics), HEK293TR-hCB1R cell membranes. Also noted: a truncated CB1R variant, CB1R91-472 was used to facilitate the FRET; expressed in transfected cells; host or cells: HEK293TR (tetracycline-inducible, pcDNA4/TO).
Target sequence in this assay (P21554 91-472): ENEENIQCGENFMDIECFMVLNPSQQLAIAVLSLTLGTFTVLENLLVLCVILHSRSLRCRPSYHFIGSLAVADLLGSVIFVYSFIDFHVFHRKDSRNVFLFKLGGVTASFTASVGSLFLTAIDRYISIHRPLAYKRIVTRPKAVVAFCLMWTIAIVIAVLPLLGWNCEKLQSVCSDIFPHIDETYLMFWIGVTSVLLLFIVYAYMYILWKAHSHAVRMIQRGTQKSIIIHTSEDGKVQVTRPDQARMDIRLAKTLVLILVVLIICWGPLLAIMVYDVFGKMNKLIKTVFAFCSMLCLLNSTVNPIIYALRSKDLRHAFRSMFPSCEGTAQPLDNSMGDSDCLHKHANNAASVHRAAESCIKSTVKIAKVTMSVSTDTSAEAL
The target of a further series is rCB1R. The following applies: cited from earlier work.
A further series has as its target mCB1R. The following applies: at 1 μM; cited from earlier work.
For series [11], the target named is hCB1R. The following applies: cited from earlier work.
Another series concerns the target hCB2R. Details: method as in PMID 29314831. To be noted: cited from earlier work.
[12] abbreviates: fluorescent probe, direct association kinetics.

“And” between values parts separate entries of the source, which are not always exact repeats. Equal values may be shown once. Read-outs that look alike come from different tables or passages of the source. Some results are limits rather than exact numbers.

T2 sequence (P21554 91-472): as above
T3 sequence (P34972 whole entry): as the sequence (P34972 whole entry) above

By Ki is commonly meant a dissociation constant, usually derived from enzyme kinetics or from competition with a known ligand. Regarding `CC(C)[C@H](NC(=O)c1nn(Cc2cccc(F)c2)c2ccccc12)C(N)=O` [Compound 10, AB-FUBINACA 3-F benzyl], the “Ki(CB2R)/Ki(CB1R) selectivity” value in the series on CB1R [1] was 4 fold. Further, the Ki is 12.6 nM at CB1R [2] and 52.5 nM at CB2R. The “Functional profile at CB1R (in words)” value in the series on CB1R [3] is reported as “agonist”.
Usually Emax stands for the maximal effect, on the per cent scale that the assay sets. The term IC50 denotes the concentration that inhibits the measured activity by half. One may read the koff as the first-order rate constant of dissociation. A low value points to a long-lived complex. The term kon denotes a measure of how fast the partners come together. Read a high kon as fast association. On to `CCC(CC)(NC(=O)c1cc(-c2cc(C(F)(F)F)ccc2C(F)(F)F)n(C[C@H]2CCCO2)c1C)C(=O)NCCOCCOCCNC(=O)c1ccc2c(c1)C(=O)OC21c2ccc(N(C)C)cc2Oc2cc(N(C)C)ccc21` [Compound 29], for which the “hCB2R % displacement at 10 µM” value on human CB2R ([3H]CP55,940 displacement at 10 µM compound, ± SEM) is recorded as 18 ± 5%. In addition, the Ki on human CB2R (read-out: hCB2R Ki, [3H]CP55,940 displacement, CHO membranes stably expressing human CB2R, means of three experiments) is above 10000 nM. Besides, the “Staining of CB1R on induced CB1R-HEK293TR cells” value in series [4] (confocal microscopy) is “selectively stain and visualize CB1R”. The “Time to staining of CB1R” value in series [4] (induced CB1R-HEK293TR cells) is reported as at most 10 min. In series [5] (250 nM probe, no CB1R expression), the “Staining of uninduced CB1R-HEK293TR cells” value was “no staining”. In series [5] (concluded from intracellular staining in live CB1R-HEK293TR cells), the “Passive permeation of outer cell membrane” value is “able to passively permeate the outer cell membrane”. Further, the “Staining of CB2R-HEK293TR cells” value at CB2R-HEK293TR is recorded as “no staining”. Moreover, in series [6], the “Abs (absorbance maximum)” value is 555 nm; the “Em (emission maximum)” value came to 585 nm; the “QY (quantum yield)” value is 36.60% and 37%. For the same compound, the “hCB1R pKi ± SEM” value on hCB1R [7] ([3H]CP55,940 displacement, CHO membranes) worked out at 5.68 ± 0.29. Also, on hCB1R [7] (radioligand binding Ki ratio), the “Ki(CB2R)/Ki(CB1R)” value is above 4.8. Moreover, the Ki at hCB1R [7] (read-out: hCB1R Ki, [3H]CP55,940 displacement, CHO membranes stably expressing human CB1R, means of three experiments) was determined as 2080 nM. Further, the Emax on hCB1R [8] was -64%. The “Functional activity at CB1R (in words)” value at hCB1R [8] (CB1R cAMP HTRF assay) is “inverse agonists”. At hCB1R [8] (inverse agonists, n.a. is no activity), the “Functional activity CB1R (cAMP assay) pEC50 or pIC50 ± SEM” value turned out to be 6.99 ± 0.09. Besides, the IC50 at hCB1R [8] (read-out: Functional activity (cAMP assay) IC50, cells stably expressing hCB1R, HTRF cAMP, inverse agonists, n.a. denotes no activity) was 102 nM. Besides, on hCB1R [9] (antagonist mode, n.a. is no activity), the “Antagonist activity (cAMP assay) pEC50 or pIC50 ± SEM” value was found to be 5.7 ± 0.16. The Emax at hCB1R [9] (read-out: Variation of Emax) is -88%. At hCB1R [10] (setting [12]), this compound gave a koff of 0.00433 s⁻¹ and a kon of 13500 M⁻¹ s⁻¹. Further, at hCB1R [10] (fluorescent probe, read-out: RT (residence time)), the residence time was 3.85 min. At hCB1R [10] (read-out: kinetic KD, fluorescent probe), the Kd was 365 nM. Besides, the Kd on hCB1R [10] (read-out: saturation binding KD, TR-FRET saturation binding after 60 min) was 335 nM.
For `Cc1c(C(=O)NN2CCCCC2)nn(-c2ccc(Cl)cc2Cl)c1-c1ccc(-c2ccc(CCCNC(=O)c3ccc4c(c3)C(=O)OC43c4ccc(N(C)C)cc4Oc4cc(N(C)C)ccc43)cc2)cc1` [Compound T1117], the Kd at rCB1R was 460 ± 80 nM. In addition, the “Ki(mCB1R): displacement” value on mCB1R is 10%.
As to `CCCCCCC(C)(C)c1cc(O)c2c(c1)OC(C)(C)[C@@H]1CC=C(CNC(=O)CCCCCNC(=O)c3ccc(-c4c5ccc(=N)c(S(=O)(=O)O)c-5oc5c(S(=O)(=O)O)c(N)ccc45)c(C(=O)O)c3)C[C@@H]21` [HU210-Alexa488], the Ki is 27 ± 4 nM on hCB1R [11] and 800 ± 200 nM on hCB2R.

(Values after paper PMC11284800 (Journal of Medicinal Chemistry, 2024).)
